Laboratory results taken from paper PMC4128046, “Effect of a toggle switch mutation in TM6 of the human adenosine A3 receptor on Gi protein-dependent signalling and Gi-independent receptor internalization” (British Journal of Pharmacology, 2014).

What was measured:
SNAP-A3 W243F = molecular target: T1, SNAP-A3 W243F (Homo sapiens, UniProt P0DMS8, W243F); experiment: Confocal imaging of SNAP-tagged receptor internalization, SNAP-A3 W243F; type: cell-based; details: SNAP-A3 W243F transiently expressed in CHO CRE-SPAP cells, BG-AF488 label, 10 μM agonist
T1 construct: the methionine start signal was removed from cDNA encoding the full length A3; expressed in transfected cells; host or cells: CHO CRE-SPAP, transient (Fugene HD)
T1 sequence (P0DMS8 2-318 W243F limits assumed): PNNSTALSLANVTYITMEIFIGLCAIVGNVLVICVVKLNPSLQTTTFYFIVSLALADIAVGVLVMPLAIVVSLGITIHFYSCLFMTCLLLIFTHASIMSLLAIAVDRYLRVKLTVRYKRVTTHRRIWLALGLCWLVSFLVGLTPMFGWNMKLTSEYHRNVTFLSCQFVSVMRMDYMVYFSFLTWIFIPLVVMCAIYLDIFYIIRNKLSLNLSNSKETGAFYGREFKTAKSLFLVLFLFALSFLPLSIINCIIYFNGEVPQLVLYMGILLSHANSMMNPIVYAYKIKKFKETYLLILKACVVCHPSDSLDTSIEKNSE
Method: CHO-K1 cells stably expressing a cAMP response element-secreted placental alkaline phosphatase (CRE-SPAP) reporter gene (CHO CRE-SPAP) under hygromycin selectivity and CHO-K1 cells stably expressing β-arrestin2-vYnL (CHO β-arrestin2-vYnL, a gift from Dr. N. Holliday, University of Nottingham, Nottingham, UK) were maintained in DMEM/F12 medium containing 10% FCS and 2 mM L-glutamine at 37°C in a humidified atmosphere of air/CO2 (19:1). […] Cell lines were initially screened for YFP or bimolecular fluorescence complementation (BiFC) fluorescence and CRE-SPAP cells lines were subsequently tested in the CRE-SPAP gene transcription assay. […]
Live-cell BiFC imaging was performed on A3-vYc/β-arrestin2-vYnL and A3 W243F-vYc/β-arrestin2-vYnL cells grown in Nunc Labtek 8-well plates, and images obtained using a Zeiss 710 confocal microscope (Carl Zeiss GmbH, Jena, Germany) fitted with a 63× plan-Apochromat NA1.4 Ph3 oil-immersion objective. […] For both YFP, BiFC and BG-AF488 label, a 488 nm argon laser was used to excite the fluorophore and emission was detected using a BP505-530 filter. […] Images of A3-YFP and A3 W243F-YFP cells were taken with same pinhole diameter, laser power, gain and offset to allow comparison of YFP fluorescence. To obtain fluorescence intensity values, a region of interest was drawn around the plasma membrane of 10 cells per image in Zeiss AIM 4.2 software (Carl Zeiss GmbH).

A3 W243F-YFP = molecular target: T2, A3 W243F-YFP (Homo sapiens, UniProt P0DMS8, W243F); experiment: [3H]-cAMP accumulation assay, A3 W243F-YFP; type: cell-based; details: for inhibition of FSK-stimulated [3H]-cAMP accumulation after 5 h agonist stimulation / Emax: A3 W243F-YFP cells; for inhibition of FSK-stimulated [3H]-cAMP accumulation after 5 h agonist stimulation: 5 h stimulation, compared with 1 h; for Emax: read-out: Maximum response (% inhibition of 3 μM FSK), cAMP accumulation assay, 1 h stimulation
T2 construct: Full length A3 W243F-YFP was excised and subcloned into a native pcDNA3.1 vector; expressed in transfected cells
T2 sequence (P0DMS8 1-318 W243F): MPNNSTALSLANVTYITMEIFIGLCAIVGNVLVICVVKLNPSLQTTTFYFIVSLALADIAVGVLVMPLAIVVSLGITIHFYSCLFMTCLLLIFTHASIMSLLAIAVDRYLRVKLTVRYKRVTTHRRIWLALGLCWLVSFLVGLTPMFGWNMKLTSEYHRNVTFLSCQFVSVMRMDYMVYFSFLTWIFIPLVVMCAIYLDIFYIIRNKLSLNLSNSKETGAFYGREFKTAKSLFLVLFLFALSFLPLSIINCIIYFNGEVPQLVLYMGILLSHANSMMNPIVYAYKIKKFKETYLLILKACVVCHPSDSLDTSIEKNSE
Method: On the day of analysis, cells were labelled with [^3H]-adenine (2 μCi·mL^−1) in a total volume of 600 μL per well for 2 h at 37°C/5% CO2 in normal growth medium. After 2 h, the [^3H]-adenine-containing medium was removed; cells washed once in serum-free medium and fresh serum-free medium, containing 10 μM rolipram, added. […] […] The assay was terminated by the addition of 50 μL concentrated HCl to each well. The levels of [^3H]-cAMP incorporated were measured by sequential Dowex and alumina chromatography and the efficiency of each column was determined by the recovery of [^14C]-cAMP as described by Donaldson et al. ([1988]).
A basal and FSK control was included in each separate concentration-response CRE-SPAP gene transcription assay and cAMP accumulation assay to allow the responses in each cell line to be expressed as an inhibition of FSK-stimulated SPAP production.

EC50 (A3 W243F-YFP; read-out: pEC50 (cAMP accumulation assay) (converted)) [nM] | Structure (SMILES) | internalization of SNAP-tagged receptor seen in confocal images (SNAP-A3 W243F) | inhibition of FSK-stimulated [3H]-cAMP accumulation after 5 h agonist stimulation (A3 W243F-YFP) | Emax (A3 W243F-YFP) [%]
9.55 | CCCCC#Cc1nc(NC)c2ncn([C@@H]3O[C@H](CO)[C@@H](O)[C@H]3O)c2n1 [HEMADO, 2-(1-hexynyl)-N-methyladenosine] | did not result in any clear change in the localization | very little inhibition | 43.2 ± 4.3
– | CCNC(=O)[C@H]1O[C@@H](n2cnc3c(N)ncnc32)[C@H](O)[C@@H]1O [NECA, 5-(N-ethylcarboxamido)adenosine] | retained the ability to cause internalization | reduced the maximal inhibition | 49.7 ± 2
